We go through 33 molecules from patent publication US20060045953A1 (priority 2004, published 2006).

The target of this assay is T1, hT1R2/hT1R3 sweet receptor (Homo sapiens, UniProt Q7RTX0+Q8TE23).
T1 construct: expressed in transfected cells; host or cells: HEK293 derivative stably expressing Gα15, clone S-9
T1 sequence (Q8TE23 20-839): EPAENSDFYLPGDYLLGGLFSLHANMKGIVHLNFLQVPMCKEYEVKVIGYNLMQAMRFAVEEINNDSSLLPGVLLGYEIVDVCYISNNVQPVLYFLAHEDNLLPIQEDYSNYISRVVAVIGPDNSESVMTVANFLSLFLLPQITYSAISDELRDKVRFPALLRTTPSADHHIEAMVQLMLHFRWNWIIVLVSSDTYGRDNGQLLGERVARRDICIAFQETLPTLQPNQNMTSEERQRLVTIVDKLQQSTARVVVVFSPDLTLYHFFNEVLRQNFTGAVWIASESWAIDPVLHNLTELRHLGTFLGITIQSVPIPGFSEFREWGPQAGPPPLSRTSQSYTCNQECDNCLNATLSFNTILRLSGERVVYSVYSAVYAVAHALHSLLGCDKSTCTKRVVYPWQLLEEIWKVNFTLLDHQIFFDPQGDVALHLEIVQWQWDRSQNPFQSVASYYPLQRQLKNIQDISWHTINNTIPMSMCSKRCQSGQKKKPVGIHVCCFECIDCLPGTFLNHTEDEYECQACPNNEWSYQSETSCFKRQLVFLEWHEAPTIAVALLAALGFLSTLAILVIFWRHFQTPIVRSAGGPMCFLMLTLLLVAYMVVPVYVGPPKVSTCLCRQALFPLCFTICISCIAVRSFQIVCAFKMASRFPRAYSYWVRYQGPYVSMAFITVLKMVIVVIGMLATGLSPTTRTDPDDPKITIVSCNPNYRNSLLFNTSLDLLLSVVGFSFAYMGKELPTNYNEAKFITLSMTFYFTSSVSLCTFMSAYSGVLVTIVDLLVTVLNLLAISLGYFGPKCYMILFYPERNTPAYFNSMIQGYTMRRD
T1 sequence (Q7RTX0 21-852): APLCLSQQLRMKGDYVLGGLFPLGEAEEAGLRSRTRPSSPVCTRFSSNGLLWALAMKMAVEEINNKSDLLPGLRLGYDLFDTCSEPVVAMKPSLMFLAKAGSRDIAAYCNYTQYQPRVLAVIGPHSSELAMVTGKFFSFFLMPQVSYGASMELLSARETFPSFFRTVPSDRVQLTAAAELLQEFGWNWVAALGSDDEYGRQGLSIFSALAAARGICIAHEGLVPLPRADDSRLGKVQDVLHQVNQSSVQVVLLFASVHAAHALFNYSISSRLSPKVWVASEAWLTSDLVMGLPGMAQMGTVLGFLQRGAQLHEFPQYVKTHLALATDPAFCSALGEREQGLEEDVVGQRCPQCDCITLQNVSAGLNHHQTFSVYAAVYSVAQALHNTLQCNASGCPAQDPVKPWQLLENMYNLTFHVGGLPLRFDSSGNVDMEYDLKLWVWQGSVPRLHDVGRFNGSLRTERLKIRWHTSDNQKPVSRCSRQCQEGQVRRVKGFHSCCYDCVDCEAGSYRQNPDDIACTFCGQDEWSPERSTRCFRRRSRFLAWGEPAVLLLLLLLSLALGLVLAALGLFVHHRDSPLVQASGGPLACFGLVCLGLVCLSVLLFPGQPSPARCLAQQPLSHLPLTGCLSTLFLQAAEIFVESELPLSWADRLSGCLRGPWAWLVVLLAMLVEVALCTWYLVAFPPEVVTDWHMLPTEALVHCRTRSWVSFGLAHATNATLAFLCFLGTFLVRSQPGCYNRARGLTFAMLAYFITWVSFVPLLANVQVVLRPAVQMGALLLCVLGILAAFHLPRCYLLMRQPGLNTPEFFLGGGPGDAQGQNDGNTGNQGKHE
Put plainly: In vitro hT1R2/hT1R3 sweet taste receptor activation assay (FLIPR, dose response). It counts as cell-based. The method, then: Activity was determined using an automated fluorometric imaging assay on a FLIPR instrument (Fluorometric Intensity Plate Reader, Molecular Devices, Sunnyvale, Calif.) (designated FLIPR assay). […] S-9 cells were grown for 24 hours at 37° C. S-9 cells were then loaded with the calcium dye Fluo-3AM (Molecular Probes, Eugene, Oreg.), 4 µM in a phosphate buffered saline (D-PBS) (Invitrogen, Carlsbad, Calif.), for 1 hour at room temperature. After replacement with 25 µl D-PBS, stimulation was performed in the FLIPR instrument and at room temperature by the addition of 25 µl D-PBS supplemented with different stimuli at concentrations corresponding to twice the desired final level.
For dose-responses analysis, stimuli were presented in duplicates at 10 different concentrations ranging from 60 nM to 30 µM. Activities were normalized to the response obtained with 400 mM D-fructose, a concentration that elicits maximum receptor response. EC50s were determined using a non-linear regression algorithm (using a Senomyx, Inc. software), where the Hill slope, bottom asymptotes and top asymptotes were allow to vary.

The mark [1] stands for this setting: Table E, Sweet Enhancer Amides, read-out: Sweet EC50.
[2] abbreviates: read-out: EC50 for activation of a hT1R2/hT1R3 sweet receptor expressed in an HEK293 cell line.

Like-named read-outs stand apart in the source and are kept apart here.

With `Cc1c(F)c(F)c(C(=O)NC(C)C(C)(C)C)c(F)c1F` (stereo not drawn) [Example E28, N-(3,3-dimethylbutan-2-yl)-2,3,5,6-tetrafluoro-4-methylbenzamide], the EC50 under setting [1] stood at 210 nM.

Regarding `CC(C)[C@H](C)NC(=O)c1c(F)c(F)c(-c2ccccc2)c(F)c1F` [Example E131, (S)-2,3,5,6-tetrafluoro-N-(3-methylbutan-2-yl)-4-phenyl benzamide], under setting [1], the EC50 turned out to be 440 nM.

For `COc1ccc2c(c1)CCCC2NC(=O)c1cccc(Cl)c1O` (stereo not drawn) [Example E5, 3-chloro-2-hydroxy-N-(6-methoxy-1,2,3,4-tetrahydronaphthalen-1-yl)benzamide], the EC50 under setting [1] is 1610 nM.

Regarding `COc1cc(C)c(C(=O)NC2CCCCC2C)c(C)c1` (stereo not drawn) [Example 169, 4-methoxy-2,6-dimethyl-N-(2-methylcyclohexyl)benzamide], under setting [2], the EC50 was 2100 nM.

As to `COc1cccc2c1CCC(C)C2NC(=O)c1cccc(Cl)c1O` (stereo not drawn) [Example 186, 3-Chloro-2-hydroxy-N-(5-methoxy-2-methyl-1,2,3,4-tetrahydronaphthalen-1-yl)benzamide], the EC50 under setting [2] was determined as 500 nM.

For `CC1CCCC(NC(=O)c2cc(F)ccc2F)C1C` (stereo not drawn) [Example E77, N-(2,3-dimethylcyclohexyl)-2,5-difluorobenzamide], under setting [1], the EC50 amounted to 4110 nM.

In the case of `O=C(Nc1ccc(Cl)cc1Cl)N1CCc2ccccc2C1` [Example E109, N-(2,4-dichlorophenyl)-3,4-dihydroisogumoline-2(1H)-carboxamide], under setting [1], the EC50 was 2340 nM.

Regarding `O=C(Nc1ccc(F)cc1F)N1Cc2ccccc2C1` [Example E101, N-(2,4-difluorophenyl)isoindoline-2-carboxamide], the EC50 under setting [1] was 1370 nM.

On to `Cc1cccc2c1CCC[C@H]2NC(=O)c1conc1C` [Example 182, (R)-3-Methyl-N-(5-methyl-1,2,3,4-tetrahydronaphthalen-1-yl)isoxazole-4-carboxamide], for which the EC50 under setting [2] is 2800 nM.

Regarding `CC1CCCCC1NC(=O)c1cccc(C(F)(F)F)c1F` (stereo not drawn) [Example E61, 2-fluoro-N-(2-methylcyclohexyl)-3-(trifluoromethyl)benzamide], the EC50 under setting [1] worked out at 2400 nM.

As for `COc1c(Cl)cc(C(=O)Nc2ccc(C)cc2C)cc1Cl` [Example E86, 3,5-dichloro-N-(2,4-dimethylphenyl)-4-methoxybenzamide], under setting [1], the EC50 was found to be 1480 nM.

As for `O=C(N[C@@H]1CCCc2ccccc21)c1ccoc1` [Example 170, (R)-N-(1,2,3,4-tetrahydronaphthalen-1-yl)furan-3-carboxamide], under setting [2], the EC50 was determined as 6600 nM.

On to `Cc1c(F)c(F)c(C(=O)NC2CCCC2)c(F)c1F` [Example E58, N-cyclopentyl-2,3,5,6-tetrafluoro-4-methylbenzamide], for which the EC50 under setting [1] worked out at 2230 nM.

On to `COc1ccc(NC(=O)c2cc(Cl)c(OC)c(Cl)c2)cc1` [Example E93, 3,5-dicbloro-4-methoxy-N-(4-methoxyphenyl)benzamide], for which the EC50 under setting [1] was found to be 3240 nM.

`CCCc1c(F)c(F)c(C(=O)N[C@@H](C)C(C)C)c(F)c1F` [Example 192, (S)-2,3,5,6-tetrafluoro-N-(3-methylbutan-2-yl)-4-propylbenzamide]: under setting [2], the EC50 was found to be 140 nM.

For `CCCCc1nocc1C(=O)N[C@@H]1CCCc2c(OC)cccc21` [Example 189, (R)-3-Butyl-N-(5-methoxy-1,2,3,4-tetrahydronaphthalen-1-yl)isoxazole-4-carboxamide], under setting [2], the EC50 was 360 nM.

With `COc1cccc2c1CCCC2NC(=O)c1conc1C` (stereo not drawn) [Example E12, N-(5-methoxy-1,2,3,4-tetrahydronaphthalen-1-yl)-3-methylisoxazole-4-carboxamide], under setting [1], the EC50 stood at 2850 nM.

For `CC1CCCCC1NC(=O)c1c(Cl)cccc1Cl` (stereo not drawn) [Example E39, 2,6-dichloro-N-(2-methylcyclohexyl)benzamide], the EC50 under setting [1] is 910 nM.

Consider `COc1cccc2c1CCCC2NC(=O)c1cccc(C(C)C)c1O` (stereo not drawn) [Example E124], for which the EC50 under setting [1] stood at 2640 nM.

As to `CC1CCCCC1NC(=O)c1cccc(OC(F)(F)F)c1` (stereo not drawn) [Example E29, N-(2-methylcyclohexyl)-3-(trifluoromethoxy)benzamide], the EC50 under setting [1] was 420 nM.

On to `Cc1cccc(C(=O)NC2CCCCC2C)c1C` (stereo not drawn) [Example E63, 2,3-dimethyl-N-(2-methylcyclohexyl)benzamide], for which the EC50 under setting [1] was 2600 nM.

Consider `Cc1c(F)c(F)c(C(=O)N[C@@H]2CC3CCC2C3)c(F)c1F` (stereo partly drawn) [Example E41, N-((2R)-bicyclo[2.2.1]heptan-2-yl)-2,3,5,6-tetrafluoro-4-methylbenzamide], for which the EC50 under setting [1] amounted to 1020 nM.

As for `C=CCc1c(F)c(F)c(C(=O)N[C@@H](C)C(C)C)c(F)c1F` [Example 191, (S)-4-allyl-2,3,5,6-tetrafluoro-N-(3-methylbutan-2-yl)benzamide], the EC50 under setting [2] came out at 140 nM.

Regarding `COc1c(Cl)ccc(Cl)c1C(=O)NC1CCCC(C)C1C` (stereo not drawn) [Example E48, 3,6-dichloro-N-(2,3-dimethylcyclohexyl)-2-methoxybenzamide], the EC50 under setting [1] is 1290 nM.

In the case of `CC(C)C(NC(=O)c1c(O)cccc1O)C(C)C` [Example E79, N-(2,4-dimethylpentan-3-yl)-2,6-dihydroxybenzamide], under setting [1], the EC50 was 4280 nM.

Turning to `Cc1ccc2c(c1)CN(C(=O)Nc1c(F)cc(Br)cc1F)C2` [Example 197, N-(4-Bromo-2,6-difluorophenyl)-5-methylisoindoline-2-carboxamide], under setting [2], the EC50 came out at 520 nM.

As for `COc1c(Cl)cc(Cl)c(OC)c1C(=O)NC1CCCCC1C` (stereo not drawn) [Example E35, 3,5-dichloro-2,6-dimethoxy-N-(2-methylcyclohexyl)benzamide], the EC50 under setting [1] was 710 nM.

With `Cc1c(NC(=O)N2Cc3ccccc3C2)cccc1[N+](=O)[O-]` [Example E102, N-(2-methyl-3-nitrophenyl)isoindoline-2-carboxamide], under setting [1], the EC50 was found to be 2010 nM.

In the case of `Cc1ccc(NC(=O)N2CCc3ccccc3C2)cc1` [Example E111, N-p-tolyl-3,4-dihydroisoquinoline-2(1H)-carboxamide], under setting [1], the EC50 was found to be 4270 nM.

For the molecule `O=C(N[C@@H]1CCCc2ccccc21)c1cc(O)ccc1O` [Example E24, (R)-2,5-dihydroxy-N-(1,2,3,4-tetrahydronaphthalen-1-yl)benzamide], under setting [1], the EC50 worked out at 6040 nM.

On to `O=C(N[C@@H]1CCCc2ccccc21)c1cccc(Cl)c1O` [Example E2, (R)-3-chloro-2-hydroxy-N-(1,2,3,4-tetrahydronaphthalen-1-yl)benzamide], for which the EC50 under setting [1] amounted to 650 nM.

As to `N#Cc1ccccc1NC(=O)N1CCc2ccccc2C1` [Example E110, N-(2-cyanophenyl)-3,4-dihydroisoquinoline-2(1H)-carboxamide], the EC50 under setting [1] turned out to be 2500 nM.

Regarding `C=CCc1c(F)c(F)c(C(=O)N[C@@H](C)C(C)(C)C)c(F)c1F` [Example E130, (S)-4-allyl-N-(3,3-dimethylbutan-2-yl)-2,3,5,6-tetrafluorobenzamide], the EC50 under setting [1] was found to be 430 nM.
